Measurements taken from patent publication US20230399332A1, “IMIDAZO[1,2-a]PYRAZINE OR PYRAZOLO[1,5-a]PYRIMIDINE DERIVATIVE AND USE THEREOF” (TENCENT TECHNOLOGY (SHENZHEN) COMPANY LIMITED, priority 2022, published 2023).

Molecular target: LSD1 (Homo sapiens (Human), UniProt O60341)
Assay: LSD1 inhibitory activity on an enzyme level, AlphaScreen method
Assay type: biochemical
Settings: in vitro
Method: This experiment was carried out to test the in vitro inhibitory activity of the compounds of the present disclosure against LSD1.
Experimental steps and a method: In this experiment, the in vitro inhibitory activity of the compounds of the present disclosure against LSD1 on an enzyme level was tested by using an AlphaScreen method. The experimental steps are described as follows: • a) preparation of a 1× buffer: • preparing a 1× buffer (improved trihydroxymethylaminomethane buffer); • b) continuous dilution of the compounds: • transferring the compounds of the present disclosure to a porous plate by using Echo at a final DMSO concentration of 1%; • c) preparation of an enzyme solution: • preparing an enzyme solution in the 1× buffer; • d) preparation of a substrate solution: • adding polypeptide to the 1× buffer to prepare a substrate solution; • e) transferring 5 μL of the enzyme solution or the 1× buffer to the porous plate; • f) conducting incubation at room temperature for 15 min; • g) adding 5 μL of the substrate solution to each well to induce a reaction; • h) conducting incubation at room temperature for 40 min; • i) preparing a 1× Alphalisa buffer; • j) preparation of a 1× Alphalisa buffer solution of receptors and donors: • adding 15 μL of a receptor and donor solution in dark light environment, and conducting incubation at room temperature for 60 min; • k) reading an endpoint in an EnSpire Alpha mode; and • l) data processing: • calculating an inhibitory value according to an equation 1:
Inh %=(Max−Signal)/(Max−Min)*100; and equation 1: • calculating an IC50 value by using XL-Fit according to an equation 2:
Y=Bottom+(Top-Bottom)/(1+(IC50/X)[…]), equation 2: • where Y indicates the inhibitory rate, and X indicates the concentration of a compound.

| Compound | IC50 [nM] |
| --- | --- |
| CCC(O)(CC)Cn1nnc2cc(-c3c(-c4ccc(C#N)c(F)c4)nc4c(N5CCC[C@H](N)C5)nccn34)c(F)cc21 [Compound 26, (S)-4-(8-(3-aminopiperidin-1-yl)-3-(1-(2-ethyl-2-hydroxybutyl)-6-fluoro-1H-benzo[d][1,2,3]triazol-5-yl)imidazo[1,2-a]pyrazin-2-yl)-2-fluorobenzonitrile] | 0.7 |
| CC(C)(O)Cc1ccc(-c2c(-c3ccc(C#N)c(F)c3)nc3c(N4CCC[C@@H](N)C4)nccn23)c(F)c1 [Compound 22, (R)-4-(8-(3-aminopiperidin-1-yl)-3-(2-fluoro-4-(2-hydroxy-2-methylpropyl)phenyl)imidazo[1,2-a]pyrazin-2-yl)-2-fluorobenzonitrile] | 2.5 |
| COc1ccc(-c2c(-c3ccc(C#N)c(F)c3)nc3c(NCC4CCCN4)nccn23)cc1F (centres unmarked) [Compound 6, 2-fluoro-4-(3-(3-fluoro-4-methoxyphenyl)-8-((pyrrolidin-2-ylmethyl)amino)imidazo[1,2-a]pyrazin-2-yl)benzonitrile] | 45 |
| CC(C)(O)Cn1ncc2cc(-c3c(-c4ccc(C#N)c(F)c4)nc4c(N5CCC[C@@H](N)C5)nccn34)ccc21 [Compound 11, (R)-4-(8-(3-aminopiperidin-1-yl)-3-(1-(2-hydroxy-2-methylpropyl)-1H-indazol-5-yl)imidazo[1,2-a]pyrazin-2-yl)-2-fluorobenzonitrile] | 0.97 |
| COc1ccc(-c2c(-c3ccc(C#N)c(F)c3)nc3c(NCC4CCNC4)nccn23)cc1F (centres unmarked) [Compound 13, 2-fluoro-4-(3-(3-fluoro-4-methoxyphenyl)-8-((pyrrolidin-3-ylmethyl)amino)imidazo[1,2-a]pyrazin-2-yl)benzonitrile] | 56 |
| CN1CCOc2cc(-c3c(-c4ccc(C#N)c(F)c4)nc4c(N5CCC[C@@H](N)C5)nccn34)ccc21 [Compound 9, (R)-4-(8-(3-aminopiperidin-1-yl)-3-(4-methyll-3,4-dihydro-2H-benzo [b][1,4]oxazin-7-yl)imidazo[1,2-a]pyrazin-2-yl)-2-fluorobenzonitrile] | 0.88 |
| CC(C)(O)Cn1nnc2cc(-c3c(-c4ccc(C#N)c(F)c4)nc4c(N5[C@@H]6CC[C@H]5C[C@@H](NC(=O)OC(C)(C)C)C6)nccn34)c(F)cc21 [Compound 28, ((1R,3r,5S)-8-(2-(4-cyano-3-fluorophenyl)-3-(6-fluoro-1-(2-hydroxy-2-methylpropyl)-1H-benzo[d][1,2,3]triazol-5-yl)imidazo[1,2-a]pyrazin-8-yl)-8-azabicyclo[3.2.1]octane-3-yl)carbamate] | 5.5 |
| 4-(7-(4-aminopiperidin-1-yl)-3-(3-fluoro-4-methoxyphenyl)imidazo [1,5-a]pyrazin-2-yl)-2-fluorobenzonitrile [Compound 3] | 2.6 |
| (R)4-(7-(3-aminopiperidin-1-yl)-3-(3-fluoro-4-methoxyphenyl)imidazo [1,5-a]pyrazin-2-yl)-2-fluorobenzonitrile [Compound 4] | 1 |
| Cn1ncc2cc(-c3c(-c4ccc(C#N)c(F)c4)nc4c(N5CCC[C@@H](N)C5)nccn34)ccc21 [Compound 8, (R)-4-(8-(3-aminopiperidin-1-yl)-3-(1-methyll-1H-indazol-5-yl)imidazo [1,2-a]pyrazin-2-yl)-2-fluorobenzonitrile] | 1.7 |
| COc1ccc(-c2c(-c3ccc(C#N)c(F)c3)nc3c(N[C@@H]4CC[C@@H](N)C4)nccn23)cc1F (relative stereo) [Compound 15, trans-4-(8-(((1R,3R)-3-aminocyclopentyl)amino)-3-(3-fluoro-4-methoxyphenyl)imidazo[1,2-a]pyrazin-2-yl)-2-fluorobenzonitrile] | 11 |
| COc1ccc(-c2c(-c3ccc(C#N)c(F)c3)nc3c(NC4CCNC4)nccn23)cc1F (centres unmarked) [Compound 16, 2-fluoro-4-(3-(3-fluoro-4-methoxyphenyl)-8-(pyrrolidin-3-ylamino)imidazo[1,2-a]pyrazin-2-yl)benzonitrile] | 15 |
| COc1ccc(-c2c(-c3ccc(C#N)c(F)c3)nc3c(N4CCC[C@@H](N)C4)nccn23)cc1F [Compound 2, (R)-4-(8-(3-aminopiperidin-1-yl)-3-(3-fluoro-4-methoxyphenyl)imidazo [1,2-a]pyrazin-2-yl)-2-fluorobenzonitrile] | 1.3 |
| Cn1nnc2cc(-c3c(-c4ccc(C#N)c(F)c4)nc4c(N5CCC[C@@H](N)C5)nccn34)c(F)cc21 [Compound 30, (R)-4-(8-(3-aminopiperidin-1-yl)-3-(6-fluoro-1-methyl-1H-benzo[d][1,2,3]triazol-5-yl)imidazo[1,2-a]pyrazin-2-yl)-2-fluorobenzonitrile] | 1 |
| COc1ccc(-c2c(-c3ccc(C#N)c(F)c3)nc3c(NC4CCCNC4)nccn23)cc1F (centres unmarked) [Compound 7, 2-fluoro-4-(3-(3-fluoro-4-methoxyphenyl)-8-(piperidin-3-ylamino)imidazo[1,2-a]pyrazin-2-yl)benzonitrile] | 12 |
| COc1ccc(-c2c(-c3ccc(C#N)c(F)c3)nc3c(N4CCC(N)CC4)nccn23)cc1F [Compound 1, 4-(8-(4-aminopiperidin-1-yl)-3-(3-fluoro-4-methoxyphenyl)imidazo [1,2-a]pyrazin-2-yl)-2-fluorobenzonitrile] | 7.4 |
| CC(C)(O)Cn1ncc2cc(-c3c(-c4ccc(C#N)c(F)c4)nc4c(N5CCC[C@@H](N)C5)nccn34)c(F)cc21 [Compound 19, (R)-4-(8-(3-aminopiperidin-1-yl)-3-(6-fluoro-1-(2-hydroxy-2-methylpropyl)-1H-indazol-5-yl)imidazo[1,2-a]pyrazin-2-yl)-2-fluorobenzonitrile] | 0.71 |
| Cn1cc2cc(-c3c(-c4ccc(C#N)c(F)c4)nc4c(N5CCC[C@@H](N)C5)nccn34)ccc2n1 [Compound 17, (R)-4-(8-(3-aminopiperidin-1-yl)-3-(2-methyll-2H-indazol-5-yl)imidazo [1,2-a]pyrazin-2-yl)-2-fluorobenzonitrile] | 6.3 |
| CC(C)(O)Cn1cc2cc(-c3c(-c4ccc(C#N)c(F)c4)nc4c(N5CCC[C@@H](N)C5)nccn34)c(F)cc2n1 [Compound 21, (R)-4-(8-(3-aminopiperidin-1-yl)-3-(6-fluoro-2-(2-hydroxy-2-methylpropyl)-2H-indazol-5-yl)imidazo[1,2-a]pyrazin-2-yl)-2-fluorobenzonitrile] | 2.3 |
| COc1ccc(-c2c(-c3ccc(C#N)c(F)c3)nc3c(N[C@@H]4CC[C@H](N)C4)nccn23)cc1F (relative stereo) [Compound 14, cis-4-(8-(((1R,3S)-3-aminocyclopentyl)amino)-3-(3-fluoro-4-methoxyphenyl)imidazo[1,2-a]pyrazin-2-yl)-2-fluorobenzonitrile] | 37 |
| CC(C)(O)Cn1nnc2cc(-c3c(-c4ccc(C#N)c(F)c4)nc4c(N5CCC[C@H](N)C5)nccn34)c(F)cc21 [Compound 23, (S)-4-(8-(3-aminopiperidin-1-yl)-3-(6-fluoro-1-(2-hydroxy-2-methylpropyl)-1H-benzo[d][1,2,3]triazol-5-yl)imidazo[1,2-a]pyrazin-2-yl)-2-fluorobenzonitrile] | 4.4 |
| Cn1ncc2cc(-c3c(-c4ccc(C#N)c(F)c4)nc4c(N5CCC[C@@H](N)C5)nccn34)ccc21 [Compound 5, (R)-4-(8-(3-aminopiperidin-1-yl)-3-(1-methyll-1H-indazol-5-yl)imidazo [1,2-a]pyrazin-2-yl)-2-fluorobenzonitrile] | 2.3 |
| N#Cc1ccc(-c2nc3c(N4CCC[C@@H](N)C4)nccn3c2-c2cnn(CC(F)(F)F)c2)cc1F [Compound 10, (R)-4-(8-(3-aminopiperidin-1-yl)-3-(1-(2,2,2-trifluoroethyl)-1H-pyrazol-4-yl)imidazo[1,2-a]pyrazin-2-yl)-2-fluorobenzonitrile] | 7.5 |
